Measured values reported in article PMC9090415, “Discovery of small molecule inhibitors of Plasmodium falciparum apicoplast DNA polymerase” (Journal of Enzyme Inhibition and Medicinal Chemistry, 2022).

Biological target: P. falciparum apicoplast DNA polymerase (Pf-apPOL) (Plasmodium falciparum, UniProt Q8ILY1)
Assay: Fluorescence-based high-throughput DNA polymerase assay (molecular beacon), primary screen and dose-response;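 on % inhibition ApPOL 90': test concentration in µM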;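 on % inhibition apPOL 180': test concentration in µM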
Type: biochemical
In short: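 Single-point screening used 10 µM compound with 20 nM polymerase, 20 nM hairpin substrate and 6 µM dNTPs for 90 min at 25 °C. Confirmatory titrations (2.5–80 µM) followed fluorescence at three times, and IC50 was derived from a fit including a cooperativity term n.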

[1] = supplemental file 2, sheet IC50 nontoxic compounds; Pf-apPOL

P. falciparum apicoplast DNA polymerase (Pf-apPOL), sequence (Q8ILY1 entry or part of it): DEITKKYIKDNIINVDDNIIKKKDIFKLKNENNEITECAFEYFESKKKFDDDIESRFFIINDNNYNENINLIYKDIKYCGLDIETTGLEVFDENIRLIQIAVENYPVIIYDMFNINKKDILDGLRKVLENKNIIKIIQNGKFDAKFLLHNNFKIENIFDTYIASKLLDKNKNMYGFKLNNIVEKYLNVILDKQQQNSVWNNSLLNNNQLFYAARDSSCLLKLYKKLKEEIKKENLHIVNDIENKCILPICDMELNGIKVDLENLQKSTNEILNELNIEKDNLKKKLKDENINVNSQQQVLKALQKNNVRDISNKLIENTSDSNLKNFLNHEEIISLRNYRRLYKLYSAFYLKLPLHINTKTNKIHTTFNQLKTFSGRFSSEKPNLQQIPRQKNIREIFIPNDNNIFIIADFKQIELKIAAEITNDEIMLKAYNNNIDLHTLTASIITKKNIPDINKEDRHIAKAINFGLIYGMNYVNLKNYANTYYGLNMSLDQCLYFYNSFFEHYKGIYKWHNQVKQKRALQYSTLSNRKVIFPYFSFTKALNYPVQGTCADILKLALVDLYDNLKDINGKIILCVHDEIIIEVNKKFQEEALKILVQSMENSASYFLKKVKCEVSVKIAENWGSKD

## C=CC1=C(C)c2cc3[nH]c(cc4nc(cc5[nH]c(cc1n2)c(C)c5CCC(=O)O)C(CCC(=O)O)=C4C)c(C)c3C=C [Molecule 91, C=CC1=C(C)/C/2=C/c3[nH]c(c(c3C=C)C)/C=C/3\N=C(/C=c/4\[nH]/c(=C\C1=N2)/c(C)c4CCC(=O)O)C(=C3C)CCC(=O)O]
'DNA Pol' of the 186 hits list (screen value); 90 min, 10 µM
  DNA Pol: 102
DRC-1; 10'; conc 2.5
  % inhibition Apo pol 10': 61.8295%
DRC-1; 10'; conc 5
  % inhibition Apo pol 10': 90.2247%
DRC-1; 10'; conc 10
  % inhibition Apo pol 10': 94.5739%
DRC-1; 10'; conc 20
  % inhibition Apo pol 10': 93.6963%
DRC-1; 10'; conc 40
  % inhibition Apo pol 10': 92.3128%
DRC-1; 10'; conc 80
  % inhibition Apo pol 10': 90.9627%
DRC-1; 90'; conc 2.5
  % inhibition Apol 90': 48.9007%
DRC-1; 90'; conc 5
  % inhibition Apol 90': 79.3077%
DRC-1; 90'; conc 10
  % inhibition Apol 90': 94.695%
DRC-1; 90'; conc 20
  % inhibition Apol 90': 95.5429%
DRC-1; 90'; conc 40
  % inhibition Apol 90': 94.7622%
DRC-1; 90'; conc 80
  % inhibition Apol 90': 94.048%
DRC-1; 180'; conc 2.5
  % inhibition apPOL 180': 35.65%
DRC-1; 180'; conc 5
  % inhibition apPOL 180': 71.3476%
DRC-1; 180'; conc 10
  % inhibition apPOL 180': 94.4178%
DRC-1; 180'; conc 20
  % inhibition apPOL 180': 96.2534%
DRC-1; 180'; conc 40
  % inhibition apPOL 180': 95.7686%
DRC-1; 180'; conc 80
  % inhibition apPOL 180': 95.2166%
DRC-2; 5'; conc 2.5
  % inhibition Apo pol 5': 48%
DRC-2; 5'; conc 5
  % inhibition Apo pol 5': 50%
DRC-2; 5'; conc 10
  % inhibition Apo pol 5': 53%
DRC-2; 5'; conc 20
  % inhibition Apo pol 5': 49%
DRC-2; 5'; conc 40
  % inhibition Apo pol 5': 49%
DRC-2; 5'; conc 80
  % inhibition Apo pol 5': 48%
DRC-2; 5'; concentration 2.5
  % inhibition Apo pol 5': 48%
DRC-2; 5'; concentration 20
  % inhibition Apo pol 5': 49%
DRC-2; 5'; concentration 40
  % inhibition Apo pol 5': 49%
DRC-2; 5'; concentration 80
  % inhibition Apo pol 5': 48%
DRC-2; 40'; conc 2.5
  % inhibition Apol 40': 44%
DRC-2; 40'; conc 5
  % inhibition Apol 40': 57%
DRC-2; 40'; conc 10
  % inhibition Apol 40': 70%
DRC-2; 40'; conc 20
  % inhibition Apol 40': 70%
DRC-2; 40'; conc 40
  % inhibition Apol 40': 69%
DRC-2; 40'; conc 80
  % inhibition Apol 40': 69%
DRC-2; 40'; concentration 10
  % inhibition Apol 40': 70%
DRC-2; 40'; concentration 20
  % inhibition Apol 40': 70%
DRC-2; 40'; concentration 40
  % inhibition Apol 40': 69%
DRC-2; 40'; concentration 80
  % inhibition Apol 40': 69%
DRC-2; 90'; conc 2.5
  % inhibition ApPOL 90': 40%
DRC-2; 90'; conc 5
  % inhibition ApPOL 90': 56%
DRC-2; 90'; conc 10
  % inhibition ApPOL 90': 74%
DRC-2; 90'; conc 20
  % inhibition ApPOL 90': 76%
DRC-2; 90'; conc 40
  % inhibition ApPOL 90': 75%
DRC-2; 90'; conc 80
  % inhibition ApPOL 90': 75%
DRC-2; 90'; concentration 20
  % inhibition ApPOL 90': 76%
DRC-2; 90'; concentration 40
  % inhibition ApPOL 90': 75%
DRC-2; 90'; concentration 80
  % inhibition ApPOL 90': 75%
DRC-2; 180'; conc 2.5
  % inhibition apPOL 180': 25%
DRC-2; 180'; conc 5
  % inhibition apPOL 180': 49%
DRC-2; 180'; conc 10
  % inhibition apPOL 180': 76%
DRC-2; 180'; conc 20
  % inhibition apPOL 180': 80%
DRC-2; 180'; conc 40
  % inhibition apPOL 180': 80%
DRC-2; 180'; conc 80
  % inhibition apPOL 180': 79%
DRC-2; 180'; concentration 5
  % inhibition apPOL 180': 49%
DRC-2; 180'; concentration 10
  % inhibition apPOL 180': 76%
DRC-2; 180'; concentration 20
  % inhibition apPOL 180': 80%
DRC-2; 180'; concentration 40
  % inhibition apPOL 180': 80%
Primary screen value, "DNA Pol"; 90 min, 10 µM
  DNA Pol: 102

## C=CC1=C(C)c2cc3[nH]c(cc4nc(cc5[nH]c(cc1n2)c(C)c5CCC(=O)O)C(CCC(=O)O)=C4C)c(C)c3C=C [Molecule 91]
[1]
  IC50: < 2.5 µM

## Cc1cc(C)nc(Nc2nc(CC(=O)Nc3nc(-c4ccco4)cs3)cs2)n1 [Molecule 92, O=C(Nc1scc(n1)c1ccco1)Cc1csc(n1)Nc1nc(C)cc(n1)C]
DRC-1; concentration 2.5; 10'
  % inhibition Apo pol 10': -6.381%
DRC-1; concentration 2.5; 90'
  % inhibition Apol 90': -8.504%
DRC-1; concentration 2.5; 180'
  % inhibition apPOL 180': -14.5806%
DRC-1; concentration 5; 10'
  % inhibition Apo pol 10': 13.7887%
DRC-1; concentration 5; 90'
  % inhibition Apol 90': 3.55%
DRC-1; concentration 5; 180'
  % inhibition apPOL 180': -5.24%
DRC-1; concentration 10; 10'
  % inhibition Apo pol 10': 59.5511%
DRC-1; concentration 10; 90'
  % inhibition Apol 90': 43.4607%
DRC-1; concentration 10; 180'
  % inhibition apPOL 180': 29.1586%
DRC-1; concentration 20; 10'
  % inhibition Apo pol 10': 80.2022%
DRC-1; concentration 20; 90'
  % inhibition Apol 90': 69.8736%
DRC-1; concentration 20; 180'
  % inhibition apPOL 180': 60.6937%
DRC-1; concentration 40; 10'
  % inhibition Apo pol 10': 86.2847%
DRC-1; concentration 40; 90'
  % inhibition Apol 90': 85.2413%
DRC-1; concentration 40; 180'
  % inhibition apPOL 180': 83.5937%
DRC-1; concentration 80 (unit not given); 10'
  % inhibition Apo pol 10': 83.354%
DRC-1; concentration 80; 90'
  % inhibition Apol 90': 86.9682%
DRC-1; concentration 80; 180'
  % inhibition apPOL 180': 88.1815%
DRC-2; 5'; concentration 5
  % inhibition Apo pol 5': 6%
DRC-2; 5'; concentration 40
  % inhibition Apo pol 5': 41%
DRC-2; 40'; concentration 10
  % inhibition Apol 40': 41%
DRC-2; 40'; concentration 20
  % inhibition Apol 40': 59%
DRC-2; 40'; concentration 80
  % inhibition Apol 40': 59%
DRC-2; 90'; concentration 5
  % inhibition ApPOL 90': 6%
DRC-2; concentration 2.5; 5'
  % inhibition Apo pol 5': 7%
DRC-2; concentration 2.5; 40'
  % inhibition Apol 40': 9%
DRC-2; concentration 2.5; 90'
  % inhibition ApPOL 90': 7.61%
DRC-2; concentration 2.5; 180'
  % inhibition apPOL 180': 3.63%
DRC-2; concentration 5; 5'
  % inhibition Apo pol 5': 6%
DRC-2; concentration 5; 40'
  % inhibition Apol 40': 5.45%
DRC-2; concentration 5; 90'
  % inhibition ApPOL 90': 6%
DRC-2; concentration 5; 180'
  % inhibition apPOL 180': 0.203%
DRC-2; concentration 10; 5'
  % inhibition Apo pol 5': 37%
DRC-2; concentration 10; 40'
  % inhibition Apol 40': 41%
DRC-2; concentration 10; 90'
  % inhibition ApPOL 90': 39%
DRC-2; concentration 10; 180'
  % inhibition apPOL 180': 30%
DRC-2; concentration 20; 5'
  % inhibition Apo pol 5': 43%
DRC-2; concentration 20; 40'
  % inhibition Apol 40': 59%
DRC-2; concentration 20; 90'
  % inhibition ApPOL 90': 60%
DRC-2; concentration 20; 180'
  % inhibition apPOL 180': 57%
DRC-2; concentration 40; 5'
  % inhibition Apo pol 5': 41%
DRC-2; concentration 40; 40'
  % inhibition Apol 40': 65%
DRC-2; concentration 40; 90'
  % inhibition ApPOL 90': 70%
DRC-2; concentration 40; 180'
  % inhibition apPOL 180': 74%
DRC-2; concentration 80; 5'
  % inhibition Apo pol 5': 29%
DRC-2; concentration 80; 40'
  % inhibition Apol 40': 59%
DRC-2; concentration 80; 90'
  % inhibition ApPOL 90': 66%
DRC-2; concentration 80; 180'
  % inhibition apPOL 180': 73%
Primary screen value of the 186 hits; unit not given; 90 min, 10 µM
  DNA Pol: 70
Primary screen value; head prints only 'DNA Pol'; 90 min, 10 µM
  DNA Pol: 70

## Cc1cc(C)nc(Nc2nc(CC(=O)Nc3nc(-c4ccco4)cs3)cs2)n1 [Molecule 92]
[1]
  IC50: 8.58 µM

## Cc1nc2c(oc3nc(-c4ccoc4)c4c(c32)CC(C)(C)OC4)c(-c2ccccc2)c1C(=O)O [Molecule 93]
[1]
  IC50: 6.29 µM
